Test results from patent publication US20020055702A1, “ULTRASOUND-MEDIATED DRUG DELIVERY” (priority 1998, published 2002).
“Also recorded” adds a separate entry of the source.

Test system: corpus cavernosum
Test: Intracorporal (cavernosal) pressure in anesthetized male dogs after topical papaverine gel with or without ultrasound
Assay type: in vivo, dog
Text: The invention has reduced to practice and the principles of the invention have been proven by animal experiments. In these experiments, male dogs, one year old, were anesthetized and a midline abdominal incision was made from the xyphoid process down to the symphisis pubis. Proceeding slightly lateral to the left side of the penis, the corpus cavernosum was exposed. Two butterfly needles were placed into one of the corpus cavernosum, one proximally and one distally. The proximal needle was used for intracorporal pressure recordings, while saline was infused through the distal needle. Controlled intracorporal blood pressure (without applying any drugs) was monitored and recorded while saline was perfused at a rate of 1.7 ml/min. Nude mice skin was used to cover the exposed corpora by stitching it to the dog's incised skin. A gel containing 500 mg papaverine (in a base of polyethylene glycol, methyl paraben, butyl paraben, and butylated hydroxytoluene) was applied on the surface of the nude mice skin followed by the application of an ultrasound probe of 1 MHz, pulse mode 30%, at a power level of 2 w/cm^2, for 20 min. In the control experiments, papaverine was applied topically without any ultrasound application and the manometric pressure was monitored. The resulting manometric pressure was compared to the control pressure by measuring the time needed to reach the peak pressure and the time needed for the cavernosal pressure to decline to baseline.
Perfusion of the corpora with saline (with no ultrasound or papaverine application) was performed for 15 sec at a rate of 1.7 ml/min. creating a pressure ranging from 150-220 cm. H2O. The time needed for this pressure to drop to baseline (0-5) was 30 sec. Perfusion of the corpora with saline after applying ultrasound and papaverine reached the same pressure peak in only 5 sec. Moreover, the pressure declined to baseline in 1.5 minutes.

[1] = papaverine gel plus ultrasound versus baseline (saline only)

With `COc1ccc(Cc2nccc3cc(OC)c(OC)cc23)cc1OC` [papaverine] the “time needed to reach the peak pressure” value (gel with 500 mg papaverine on nude mice skin over corpora, ultrasound 1 MHz, pulse mode 30%, 2 w/cm^2, 20 min, saline perfusion 1.7 ml/min) was 5 s, the “time needed for the cavernosal pressure to decline to baseline” value (gel with 500 mg papaverine plus ultrasound 1 MHz, pulse mode 30%, 2 w/cm^2, 20 min, saline perfusion 1.7 ml/min) was 1.5 min and the “manometric pressure result compared to saline-only control” value (papaverine gel on the skin for 20 min, no ultrasound) was “same results as in the control experiments; also recorded: no greater pressure readings than the no-drug control”. For the same molecule, the “manometric pressure result with ultrasound” value (papaverine gel plus ultrasound treatment) was “rise in pressure which was consistent with erection”, the “improvement in the period of time established as a baseline for the establishment of erection” value [1] was 300% and the “persistence of effects relative to the baseline erection parameters” value [1] was 500%.
